Reference: patent US20250163088A1, “HALF-SANDWICH TRANSITION METAL COMPLEXES AND USES THEREOF” (DEBRECENI EGYETEM, priority 2021, published 2025)
Like-named read-outs stand apart in the source and are kept apart here.

Key:
[1] = system: A2780 human ovarian carcinoma cells; assay: SRB proliferation assay (48 h) on A2780 cells; type: cell-based; conditions: for cytostatic properties in the screen (long-term SRB and short-term MTT assays): A2780 cells, 100 μM-0.0017 μM
Description: The compounds were tested in an assay aiming to assess short term toxicity (methylthiazolyldiphenyl-tetrazolium bromide (MTT) reduction assay, 4 hours) and a long term cytostasis or cytotoxicity (sulphorhodamine B (SRB) proliferation assay, 48 hours) on A2780 human ovarian carcinoma cells.
(§1) SRB accumulation assay assesses protein content in a sample and was used to assess cell proliferation. SRB accumulation assay was performed similarly to (Fodor et al., 2016) as follows. Cells were seeded in 96-well plates. The next day cells were treated with the compounds for 48 hours in the concentrations indicated in a cell incubator. At the end of treatment cells were fixed with 10% trichloroacetic acid (TCA). Fixed cells were stained with SRB (0.4 m/V % dissolved in 1% acetic acid) for 60 minutes. Fixed cells were washed in 1% acetic acid 3 times; acetic acid was removed and cells were left to dry. Protein-bound SRB was released by adding 100 μl 10 mM Tris base. Plates were measured in a plate photometer (Thermo Scientific Multiscan GO spectrophotometer, Waltham, MA, USA) at 540 nm. On each plate wells were designed to contain untreated cells. In calculations the readings for these wells was considered as 1 and all readings were expressed relative to these values.
Statistical analysis was performed using 8.0.1 version of Graphpad Prism. Values were tested for normal distribution using the D'Agostino and Pearson normality test. When necessary, values were log normalized or were normalized using the Box-Cox normalization method (Box and Cox, 1964), as indicated in the figure captions.

[2] = system: human primary skin fibroblasts; assay: SRB proliferation assay (48 h) on primary fibroblasts; type: cell-based; conditions: for Fibroblast Hill slope / IC50: SRB 48 h, N/A = cannot be calculated/no effect; for IC50: read-out: Fibroblast IC50
Description: (§2) […]. All compounds were tested on two ovarian cancer cell lines (A2780 and ID8) and on human primary skin fibroblasts (non-transformed, primary cells) in MTT and SRB assays. MTT assays were performed 4 hours post-treatment and indicated rapid toxicity of the compounds, while SRB assays were performed 2 days post-treatment and represent long term cytostasis or toxicity.
as §1
(§3) Statistical analysis was performed using 8.0.1 version of Graphpad Prism. Values were tested for normal distribution using the D'Agostino and Pearson normality test. When necessary, values were log normalized or were normalized using the Box-Cox normalization method (Box and Cox, 1964), as indicated in the figure captions. Nonlinear regression was performed using the built-in “[Inhibitor] vs. response—Variable slope (four parameters), least square fit” utility of Graphpad that yielded IC50 and Hill slope values.

[3] = Solubility / precipitation in the test medium; type: physicochemical
[4] = system: cisplatin-resistant A2780 cell line; assay: SRB proliferation assay (48 h) on cisplatin-resistant A2780 cells; type: cell-based, human
Description: In this experiment, 6×10^3 cisplatin-resistant A2780 cells were plated to 96 well plates. Cells were treated with the compounds in the concentrations indicated for either 4 hours for an MTT assay or for 48 hours for an SRB assay. Data is represented as average ±SD, from three biological replicates; individual assays were performed in duplicates. Values were normalized for vehicle treated cells, absorbance for vehicle treated cells equals to 1. Each compound was assessed individually. Normality was assessed using the Shapiro-Wilk test. […] Statistical significance was assessed using One-way ANOVA test comparing all points to the smallest concentration. Nonlinear regression was performed on the results of the SRB assay datasets.
Cisplatin resistant cells underwent selection (1 μM cisplatin) once a week for 3 days before plating for any assay.
as §1

ID8 ovarian cancer cells = assay: SRB proliferation assay (48 h) on ID8 cells; type: cell-based; conditions: SRB 48 h; for IC50: N/A = cannot be calculated/no effect
Description: as §2, §1, §3

[5] = SRB 48 h, nonlinear regression, N/A = cannot be calculated/no effect, read-out: A2780 IC50

In the case of `O=C(OC[C@H]1O[C@@H](c2nnc(-c3ccccn3)o2)[C@H](OC(=O)c2ccccc2)[C@@H](OC(=O)c2ccccc2)[C@H]1OC(=O)c1ccccc1)c1ccccc1` [Complex L-8, 2-(2′,3′,4′,6′-Tetra-O-benzoyl-β-D-galactopyranosyl)-5-(pyridin-2-yl)-1,3,4-oxadiazole], the “cytostatic effect in long-term SRB assays on A2780 and ID8 cells, in words” value (shortened to “cytostatic effect”) ([1]; 48 h) is reported as “none of the corresponding ligands (L-2a, L-4, L-6, L-8) had cytostatic properties”, the “cytostatic properties in the screen (long-term SRB and short-term MTT assays)” value (“cytostatic properties in the screen” for short) [1] is reported as “no biological activity” and the “effect on primary human fibroblasts (SRB), in words” value (“effect on primary human fibroblasts” for short) [2] is reported as “no effect”.
For “2-(2′,3′,4′,6′-Tetra-O-benzoyl-β-D-glucopyranosyl)-5-(pyridin-2-yl)-1,3,4-oxadiazole [Complex L-4]”, the “A2780 SRB Max. (maximal inhibition)” value ([1]; 48 h) was 26.9%.
With `CNCc1ccc(-c2[nH]c3cc(F)cc4c3c2CCNC4=O)cc1` [Rucaparib, rucaparib] the “cell proliferation, rucaparib alone” value ([1]; 3 μM, SRB 48 h) was “reduced cell proliferation”.
In the case of `O=C(O[C@@H]1[C@@H](OC(=O)c2ccccc2)[C@H](c2nnc(-c3ccccn3)o2)OC[C@H]1OC(=O)c1ccccc1)c1ccccc1` [Complex L-6, 2-(2′,3′,4′-Tri-O-benzoyl-β-D-xylopyranosyl)-5-(pyridin-2-yl)-1,3,4-oxadiazole], the “solubility of the free ligand for testing” value [3] is reported as “insoluble”, the “cytostatic effect” value ([1]; 48 h) is reported as “none of the corresponding ligands (L-2a, L-4, L-6, L-8) had cytostatic properties” and the “cytostatic properties in the screen” value [1] is reported as “no biological activity”. The “effect on primary human fibroblasts” value [2] was “no effect”.
With `c1ccc(-c2nnc(-c3ccccn3)o2)cc1` [Complex L-14, 2-phenyl-5-(pyridine-2-yl)-1,3,4-oxadiazole] the “cytostatic activity on A2780 cells in SRB assays, in words” value ([1]; 48 h) was “None of the free ligands, L-13 or L-14 had cytostatic activity”.
For `O=C(OC[C@H]1O[C@@H](n2cc(-c3ccc4ccccc4n3)nn2)[C@H](OC(=O)c2ccccc2)[C@@H](OC(=O)c2ccccc2)[C@@H]1OC(=O)c1ccccc1)c1ccccc1` [Complex L-2b, 1-(2′,3′,4′,6′-Tetra-O-benzoyl-β-D-glucopyranosyl)-4-(quinolin-2-yl)-1,2,3-triazole], the “cytostatic effect” value ([1]; 48 h) was “only little cytostatic activity”.
For `N.N.[Cl][Pt][Cl]` [cisplatin], the “cisplatin resistant A2780 SRB Max. (maximal inhibition)” value ([4]; 48 h) was 100%, the “fold change of IC50, cisplatin resistant vs. cisplatin sensitive A2780” value ([4]; SRB assay) was 13.6 fold and the IC50 ([4]; SRB assay, 48 h) was 16500 nM. For the same compound, the “ID8 Hill slope” value (ID8 ovarian cancer cells) was 0.99, the IC50 (ID8 ovarian cancer cells) was 10800 nM and the “A2780 SRB Hill” value ([1]; 48 h) was 1.20. For the same compound, the IC50 ([1]; 48 h, read-out: A2780 SRB IC50) was 1210 nM, the “A2780 Hill slope” value ([1]; SRB 48 h, nonlinear regression) was 1.20 and the IC50 [1, 5] was 1210 nM. The IC50 ([1]; SRB assay, 48 h, read-out: IC50 value on (cisplatin-sensitive) A2780 cells) was 1210 nM, the “Fibroblast Hill slope” value [2] was 1.53 and the IC50 [2] was 11900 nM.
With `O=C(OC[C@H]1O[C@@H](c2nnc(-c3ccccn3)o2)[C@H](OC(=O)c2ccccc2)[C@@H](OC(=O)c2ccccc2)[C@@H]1OC(=O)c1ccccc1)c1ccccc1` [Complex L-4, 2-(2′,3′,4′,6′-Tetra-O-benzoyl-β-D-glucopyranosyl)-5-(pyridin-2-yl)-1,3,4-oxadiazole] the “cytostatic effect” value ([1]; 48 h) was “none of the corresponding ligands (L-2a, L-4, L-6, L-8) had cytostatic properties”, the “cytostatic properties in the screen” value [1] was “no biological activity” and the “effect on primary human fibroblasts” value [2] was “no effect”.
In the case of `c1ccc(-n2cc(-c3ccccn3)nn2)cc1` [Complex L-13, 1-phenyl-4-(pyridine-2-yl)-1,2,3-triazole], the “cytostatic activity on A2780 cells in SRB assays, in words” value ([1]; 48 h) is reported as “None of the free ligands, L-13 or L-14 had cytostatic activity”.
For `CC(=O)OC[C@H]1O[C@@H](c2nnc(-c3ccccn3)o2)[C@H](OC(C)=O)[C@@H](OC(C)=O)[C@@H]1OC(C)=O` [Complex L-5, 2-(2′,3′,4′,6′-Tetra-O-acetyl-β-D-glucopyranosyl)-5-(pyridin-2-yl)-1,3,4-oxadiazole], the “A2780 SRB Max. (maximal inhibition)” value ([1]; 48 h) was 28.5%.
In the case of `O=C(OC[C@H]1O[C@@H](n2cc(-c3ccccn3)nn2)[C@H](OC(=O)c2ccccc2)[C@@H](OC(=O)c2ccccc2)[C@@H]1OC(=O)c1ccccc1)c1ccccc1` [Complex L-2a, 1-(2′,3′,4′,6′-Tetra-O-benzoyl-β-D-glucopyranosyl)-4-(pyridin-2-yl)-1,2,3-triazole], the “cytostatic effect” value ([1]; 48 h) is reported as “none of the corresponding ligands (L-2a, L-4, L-6, L-8) had cytostatic properties”, the “cytostatic properties in the screen” value [1] is reported as “no biological activity” and the “effect on primary human fibroblasts” value [2] is reported as “no effect”.
For `O=C1[O][Pt]2([NH][C@@H]3CCCC[C@H]3[NH]2)[O]C1=O` [oxaliplatin], the “ID8 Hill slope” value (ID8 ovarian cancer cells) was 1.58, the IC50 (ID8 ovarian cancer cells) was 4590 nM and the “A2780 Hill slope” value ([1]; SRB 48 h, nonlinear regression) was 1.27. For the same compound, the IC50 [1, 5] was 120 nM, the “effect on primary human fibroblasts” value ([2]; 48 h) was “no effect” and the “Fibroblast Hill slope” value [2] was 0.37. The IC50 [2] was 830 nM.
With `[NH2][Pt]1([NH2])[O]C(=O)C2(CCC2)C(=O)[O]1` [carboplatin] the “effect on primary human fibroblasts” value ([2]; 48 h) was “no effect”.
With `CCCCCCCC(=O)OC[C@H]1O[C@@H](n2cc(-c3ccccn3)nn2)[C@H](OC(=O)CCCCCCC)[C@@H](OC(=O)CCCCCCC)[C@@H]1OC(=O)CCCCCCC` [L-C7, 1-(2′,3′,4′,6′-Tetra-O-octanoyl-β-D-glucopyranosyl)-4-(pyridin-2-yl)-1,2,3-triazole] the “solubility of the free ligand for testing” value [3] was “insoluble”.
